Test results published in PMC9004777, “Double drugging of prolyl-tRNA synthetase provides a new paradigm for anti-infective drug development” (PLoS Pathogens, 2022).
Where two headings read alike, the source gives them in different places.

Tests used:
HsPRS = biological target: T1, HsPRS (Homo sapiens, UniProt P07814); assay: malachite green aminoacylation assay, recombinant enzyme; TSA; type: biochemical
T1 construct: gene EPRS1

[1] = biological target: T2, Toxoplasma gondii prolyl-tRNA synthetase (TgPRS) (Toxoplasma gondii, UniProt A0A7J6JUK2); assay: co-crystal structure with L95 at […] Å; TSA; malachite green aminoacylation assay (IC50); type: biochemical
T2 construct: gene TGRH88_057780
T2 sequence (A0A7J6JUK2 215-711): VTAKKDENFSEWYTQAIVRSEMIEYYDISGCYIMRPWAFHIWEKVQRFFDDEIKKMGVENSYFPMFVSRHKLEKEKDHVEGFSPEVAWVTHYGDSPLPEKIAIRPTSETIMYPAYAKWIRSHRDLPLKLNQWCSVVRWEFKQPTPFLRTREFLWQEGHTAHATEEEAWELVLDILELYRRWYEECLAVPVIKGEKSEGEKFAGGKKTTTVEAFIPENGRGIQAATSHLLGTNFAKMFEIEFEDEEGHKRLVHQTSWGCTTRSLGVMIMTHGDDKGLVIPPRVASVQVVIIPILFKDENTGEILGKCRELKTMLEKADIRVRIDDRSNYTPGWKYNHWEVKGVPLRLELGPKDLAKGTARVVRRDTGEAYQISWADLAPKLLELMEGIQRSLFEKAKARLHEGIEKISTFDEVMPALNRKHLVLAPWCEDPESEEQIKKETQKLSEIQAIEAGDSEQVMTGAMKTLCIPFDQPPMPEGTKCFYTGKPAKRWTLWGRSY

[2] = biological target: T2, Toxoplasma gondii prolyl-tRNA synthetase (TgPRS); assay: co-crystal structures at […] Å (with L-pro, 7EVV; with HFG, 7EVU); TSA; malachite green aminoacylation assay (IC50); type: biochemical
[3] = biological target: T2, Toxoplasma gondii prolyl-tRNA synthetase (TgPRS); assay: co-crystal structure with L95 at […] Å; type: binding

T1 sequence (P07814 whole entry): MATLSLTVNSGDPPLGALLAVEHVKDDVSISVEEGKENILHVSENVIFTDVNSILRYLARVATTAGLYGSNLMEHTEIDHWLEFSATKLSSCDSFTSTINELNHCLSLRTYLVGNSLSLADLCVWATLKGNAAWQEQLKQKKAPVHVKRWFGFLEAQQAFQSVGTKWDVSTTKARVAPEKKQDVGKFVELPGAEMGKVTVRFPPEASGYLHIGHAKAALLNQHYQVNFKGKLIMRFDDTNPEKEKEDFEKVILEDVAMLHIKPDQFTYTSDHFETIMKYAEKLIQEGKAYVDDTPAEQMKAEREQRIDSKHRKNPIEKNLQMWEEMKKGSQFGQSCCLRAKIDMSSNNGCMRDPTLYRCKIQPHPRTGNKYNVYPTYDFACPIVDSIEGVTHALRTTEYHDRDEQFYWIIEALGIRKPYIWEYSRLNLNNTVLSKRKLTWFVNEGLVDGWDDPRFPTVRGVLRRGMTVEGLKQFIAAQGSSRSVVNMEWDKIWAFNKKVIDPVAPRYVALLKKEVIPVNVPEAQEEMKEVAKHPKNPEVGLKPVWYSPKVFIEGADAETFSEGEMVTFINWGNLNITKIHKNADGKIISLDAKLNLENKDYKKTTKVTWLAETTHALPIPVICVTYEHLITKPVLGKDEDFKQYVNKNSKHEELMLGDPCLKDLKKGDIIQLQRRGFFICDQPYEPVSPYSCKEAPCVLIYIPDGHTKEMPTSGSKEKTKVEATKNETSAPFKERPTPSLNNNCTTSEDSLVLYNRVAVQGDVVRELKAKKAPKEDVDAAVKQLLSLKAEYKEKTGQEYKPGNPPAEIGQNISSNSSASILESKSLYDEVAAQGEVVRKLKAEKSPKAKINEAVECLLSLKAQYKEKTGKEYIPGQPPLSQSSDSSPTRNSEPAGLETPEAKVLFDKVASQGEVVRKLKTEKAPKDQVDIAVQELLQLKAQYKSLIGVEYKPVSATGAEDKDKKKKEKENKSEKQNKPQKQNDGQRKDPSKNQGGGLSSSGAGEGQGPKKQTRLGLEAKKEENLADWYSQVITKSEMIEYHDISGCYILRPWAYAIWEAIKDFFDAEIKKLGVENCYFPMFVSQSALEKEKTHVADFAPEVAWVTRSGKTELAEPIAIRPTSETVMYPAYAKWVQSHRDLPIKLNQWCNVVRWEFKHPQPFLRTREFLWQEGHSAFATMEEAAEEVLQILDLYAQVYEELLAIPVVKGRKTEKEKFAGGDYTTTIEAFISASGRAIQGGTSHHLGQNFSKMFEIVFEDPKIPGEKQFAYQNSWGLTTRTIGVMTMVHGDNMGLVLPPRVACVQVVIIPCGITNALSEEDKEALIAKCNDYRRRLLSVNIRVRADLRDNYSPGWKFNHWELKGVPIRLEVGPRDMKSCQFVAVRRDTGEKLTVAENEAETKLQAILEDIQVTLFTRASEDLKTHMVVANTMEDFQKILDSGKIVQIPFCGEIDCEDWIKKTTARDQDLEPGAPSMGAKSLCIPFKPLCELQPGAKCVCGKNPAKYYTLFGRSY

O=C(C[C@H]1NCCC[C@@H]1O)Cn1cnc2cc(Br)c(Cl)cc2c1=O (racemic) [HFG, halofuginone]
IC50 (HsPRS; read-out: IC50): 10.7 nM | IC50 [1]: 5.41 nM

Cc1cc(N2CC[C@@](C#N)(C3CC3)C2=O)cc(NC(=O)Cc2ccccc2)n1 [L95]
IC50 (HsPRS): 47.7 nM | IC50 [2]: 47.7 nM

O=C(O)[C@@H]1CCCN1 [L-pro, L-proline]
co-crystal structure with L95 at 1.7 Å [3]: forms a salt bridge between the carboxylic group of L-pro and the guanidium group of Arg470
